Assay results from US11104671B2, “Insecticidal compounds” (SYNGENTA PARTICIPATIONS AG, priority 2017, dated 2021).

Legend:
Type in all cases: in vivo
[1] = test system: Plutella xylostella; experiment: Plutella xylostella (diamond back moth), artificial diet, L2 larvae; details: 120 h, application rate 200 ppm, 5 days after infestation, L2 larvae, read-out: effect in at least one of the two categories (mortality or growth inhibition)
Protocol: Plutella xylostella (Diamond Back Moth)
(§1) 24-well microtiter plates with artificial diet were treated with aqueous test solutions prepared from 10,000 ppm DMSO stock solutions by pipetting. After drying, the plates were infested with L2 larvae (10 to 15 per well). The samples were assessed for mortality and growth inhibition in comparison to untreated samples 5 days after infestation.

[2] = test system: Thrips tabaci; experiment: Thrips tabaci (onion thrips), feeding/contact activity; details: foliar, 144 h, application rate 200 ppm, 6 days after infestation, sunflower leaf discs, mixed ages, read-out: mortality
Protocol: Thrips tabaci (Onion thrips) Feeding/Contact Activity
(§2) Sunflower leaf discs were placed on agar in 24-well microtiter plates and sprayed with aqueous test solutions prepared from 10,000 ppm DMSO stock solutions. After drying the leaf discs were infested with a thrips population of mixed ages. The samples were assessed for mortality 6 days after infestation.

[3] = test system: Myzus persicae; experiment: Myzus persicae (green peach aphid), feeding/contact activity; details: foliar, 144 h, application rate 200 ppm, 6 days after infestation, sunflower leaf discs, mixed ages, read-out: mortality
Protocol: Myzus persicae (Green Peach Aphid): Feeding/Contact Activity
Sunflower leaf discs were placed onto agar in a 24-well microtiter plate and sprayed with aqueous test solutions prepared from 10,000 ppm DMSO stock solutions. After drying, the leaf discs were infested with an aphid population of mixed ages. The samples were assessed for mortality 6 days after infestation.

[4] = test system: Diabrotica balteata; experiment: Diabrotica balteata (corn root worm), maize sprouts sprayed, L2 larvae; details: 96 h, application rate 200 ppm, 4 days after infestation, L2 larvae, read-out: effect in at least one of the two categories (mortality or growth inhibition)
Protocol: Diabrotica Balteata (Corn Root Worm)
as §1, with “Maize sprouts placed onto an agar layer in 24-well” for “24-well”, “plates” for “plates with artificial diet”, “spraying.” for “pipetting.”, “(6” for “(10”, “10” for “15”, “4” for “5”

[5] = test system: Spodoptera littoralis; experiment: Spodoptera littoralis (Egyptian cotton leaf worm), cotton leaf discs, L1 larvae; details: foliar, 72 h, application rate 200 ppm, 3 days after infestation, L1 larvae, read-out: control (mortality, anti-feedant effect or growth inhibition)
Protocol: Spodoptera littoralis (Egyptian Cotton Leaf Worm)
Cotton leaf discs were placed onto agar in 24-well microtiter plates and sprayed with aqueous test solutions prepared from 10,000 ppm DMSO stock solutions. After drying the leaf discs were infested with five L1 larvae. The samples were assessed for mortality, anti-feeding effect, and growth inhibition in comparison to untreated samples 3 days after infestation. Control of Spodoptera littoralis by a test sample is given when at least one of the categories mortality, anti-feedant effect, and growth inhibition is higher than the untreated sample.

[6] = test system: Myzus persicae; experiment: Myzus persicae (green peach aphid), intrinsic activity; details: 120 h, test rate 12 ppm, 5 days after infestation, sucrose solution, infested pea seedlings, read-out: mortality
Source text: Myzus persicae (Green Peach Aphid). Intrinsic Activity
Test compounds prepared from 10,000 ppm DMSO stock solutions were applied by pipette into 24-well microtiter plates and mixed with sucrose solution. The plates were closed with a stretched Parafilm. A plastic stencil with 24 holes was placed onto the plate and infested pea seedlings were placed directly on the Parafilm. The infested plate was closed with a gel blotting paper and another plastic stencil and then turned upside down. The samples were assessed for mortality 5 days after infestation.

[7] = test system: Euschistus heros; experiment: Euschistus heros (neotropical brown stink bug), soybean leaves sprayed, N2 nymphs; details: 120 h, application rate 200 ppm, 5 days after infestation, N2 nymphs, read-out: effect in at least one of the two categories (mortality or growth inhibition)
Protocol: Euschistus heros (Neotropical Brown Stink Bug)
Soybean leaves on agar in 24-well microtiter plates were sprayed with aqueous test solutions prepared from 10,000 ppm DMSO stock solutions. After drying the leaves were infested with N2 nymphs. The samples were assessed for mortality and growth inhibition in comparison to untreated samples 5 days after infestation.

[8] = test system: Tetranychus urticae; experiment: Tetranychus urticae (two-spotted spider mite), feeding/contact activity; details: foliar, 192 h, application rate 200 ppm, 8 days after infestation, bean leaf discs, read-out: mortality on mixed population (mobile stages)
Protocol: Tetranychus urticae (Two-Spotted Spider Mite): Feeding/Contact Activity
as §2, with “Bean” for “Sunflower”, “discs” for “discs were placed”, “were” for “and”, “mite” for “thrips”, “on mixed population (mobile stages) 8” for “6”

Cc1cc(C2=NCC(c3cc(Cl)cc(Cl)c3)(C(F)(F)F)C2)ccc1C(=O)NC1CON(S(C)(=O)=O)C1 (stereo not drawn) [Compound A5, 4-[3-(3,5-dichlorophenyl)-3-(trifluoromethyl)-2,4-dihydropyrrol-5-yl]-2-methyl-N-(2-methylsulfonylisoxazolidin-4-yl)benzamide]
≥ 80%: percent effect (mortality or growth inhibition) at 200 ppm [1] | mortality at 200 ppm [2] | mortality at 200 ppm [3] | percent effect (mortality or growth inhibition) at 200 ppm [4] | percent control (mortality, anti-feedant effect or growth inhibition) at 200 ppm [5] | mortality at 12 ppm [6] | percent effect (mortality or growth inhibition) at 200 ppm [7] | mortality at 200 ppm [8]

Cc1cc(C2=NCC(c3cc(Cl)c(F)c(Cl)c3)(C(F)(F)F)C2)ccc1C(=O)NC1CON(S(C)(=O)=O)C1 (stereo not drawn) [Compound A7, 4-[3-(3,5-dichloro-4-fluoro-phenyl)-3-(trifluoromethyl)-2,4-dihydropyrrol-5-yl]-2-methyl-N-(2-methylsulfonylisoxazolidin-4-yl)benzamide]
≥ 80%: percent effect (mortality or growth inhibition) at 200 ppm [1] | mortality at 200 ppm [2] | mortality at 200 ppm [3] | percent effect (mortality or growth inhibition) at 200 ppm [4] | percent control (mortality, anti-feedant effect or growth inhibition) at 200 ppm [5] | mortality at 12 ppm [6] | percent effect (mortality or growth inhibition) at 200 ppm [7] | mortality at 200 ppm [8]

Cc1cc(C2=NCC(c3cc(Cl)c(Cl)c(Cl)c3)(C(F)(F)F)C2)ccc1C(=O)NC1CON(S(C)(=O)=O)C1 (stereo not drawn) [Compound A8, 2-methyl-N-(2-methylsulfonylisoxazolidin-4-yl)-4-[3-(3,4,5-trichlorophenyl)-3-(trifluoromethyl)-2,4-dihydropyrrol-5-yl]benzamide]
≥ 80%: percent effect (mortality or growth inhibition) at 200 ppm [1] | mortality at 200 ppm [2] | mortality at 200 ppm [3] | percent effect (mortality or growth inhibition) at 200 ppm [4] | percent control (mortality, anti-feedant effect or growth inhibition) at 200 ppm [5] | mortality at 12 ppm [6] | percent effect (mortality or growth inhibition) at 200 ppm [7] | mortality at 200 ppm [8]
